Assays:
Assay in all cases: fitness (endpoint OD595 vs no drug) (fraction); higher = more growth
S. aureus DSM 20231 = test system: S. aureus DSM 20231
In short: (§1)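 Bacterial growth was followed in 384-well plates seeded at OD595 0.01, with 30 µl per well, or 55 µl for S. pneumoniae, in TSB, LB Lennox or CY at 37 °C. OD595 was read every 30 min for 14 h, and each reading had the first reading subtracted as background. Fitness is the background-corrected optical density at entry into stationary phase divided by the robust mean of the no-drug control wells. This ratio is capped at 1.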

S. aureus Newman = test system: S. aureus Newman
In short: as §1

S. pneumoniae D39V = test system: S. pneumoniae D39V
In short: as §1

B. subtilis 168 = test system: B. subtilis 168
In short: as §1

[1] = first compound 12.5 µg/mL, partner 0.0156 µg/mL
[2] = first compound 12.5 µg/mL, partner 0.0312 µg/mL
[3] = first compound 12.5 µg/mL, partner 0.0625 µg/mL
[4] = first compound 25 µg/mL, partner 0.0156 µg/mL
[5] = first compound 25 µg/mL, partner 0.0312 µg/mL
[6] = first compound 25 µg/mL, partner 0.0625 µg/mL
[7] = first compound 0.375 µg/mL, partner 85.5 µg/mL
[8] = first compound 0.375 µg/mL, partner 171 µg/mL
[9] = first compound 0.375 µg/mL, partner 342 µg/mL
[10] = first compound 0.75 µg/mL, partner 85.5 µg/mL
[11] = first compound 0.75 µg/mL, partner 171 µg/mL
[12] = first compound 0.75 µg/mL, partner 342 µg/mL
[13] = first compound 1.5 µg/mL, partner 85.5 µg/mL
[14] = first compound 1.5 µg/mL, partner 171 µg/mL
[15] = first compound 1.5 µg/mL, partner 342 µg/mL
[16] = first compound 0.375 µg/mL, partner 0.625 µg/mL
[17] = first compound 0.375 µg/mL, partner 1.25 µg/mL
[18] = first compound 0.375 µg/mL, partner 2.5 µg/mL
[19] = first compound 0.75 µg/mL, partner 0.625 µg/mL
[20] = first compound 0.75 µg/mL, partner 1.25 µg/mL
[21] = first compound 0.75 µg/mL, partner 2.5 µg/mL
[22] = first compound 1.5 µg/mL, partner 0.625 µg/mL
[23] = first compound 1.5 µg/mL, partner 1.25 µg/mL
[24] = first compound 1.5 µg/mL, partner 2.5 µg/mL

**Q.** Which results are given for `O=C(O[C@@H]1Cc2c(O)cc(O)cc2O[C@@H]1c1cc(O)c(O)c(O)c1)c1cc(O)c(O)c(O)c1` [EGCG] + CO[C@@]12[C@H](COC(N)=O)C3=C(C(=O)C(C)=C(N)C3=O)N1C[C@@H]1N[C@@H]12 [Mitomycin C]?
**A.** fitness (S. aureus DSM 20231; [1]): 0.587; fitness (S. aureus DSM 20231; [2]): 0.595; fitness (S. aureus DSM 20231; [3]): 0.507; fitness (S. aureus DSM 20231; [4]): 0.553; fitness (S. aureus DSM 20231; [5]): 0.574; fitness (S. aureus DSM 20231; [6]): 0.483; fitness (S. aureus Newman; [1]): 0.541; fitness (S. aureus Newman; [2]): 0.547; fitness (S. aureus Newman; [3]): 0.457; fitness (S. aureus Newman; [4]): 0.611; fitness (S. aureus Newman; [5]): 0.528; fitness (S. aureus Newman; [6]): 0.397; fitness (S. aureus Newman; first compound 50 µg/mL, partner 0.0156 µg/mL): 0.628; fitness (S. aureus Newman; first compound 50 µg/mL, partner 0.0312 µg/mL): 0.488; fitness (S. aureus Newman; first compound 50 µg/mL, partner 0.0625 µg/mL): 0.459; fitness (S. pneumoniae D39V; first compound 12.5 µg/mL, partner 0.001075 µg/mL): 0.877; fitness (S. pneumoniae D39V; first compound 12.5 µg/mL, partner 0.002 µg/mL): 0.77; fitness (S. pneumoniae D39V; first compound 12.5 µg/mL, partner 0.00215 µg/mL): 0.783; fitness (S. pneumoniae D39V; first compound 12.5 µg/mL, partner 0.004 µg/mL): 0.793; fitness (S. pneumoniae D39V; first compound 12.5 µg/mL, partner 0.008 µg/mL): 0.422; fitness (S. pneumoniae D39V; first compound 25 µg/mL, partner 0.001075 µg/mL): 0.9; fitness (S. pneumoniae D39V; first compound 25 µg/mL, partner 0.00215 µg/mL): 0.902; fitness (S. pneumoniae D39V; first compound 25 µg/mL, partner 0.004 µg/mL): 0.685; fitness (S. pneumoniae D39V; first compound 25 µg/mL, partner 0.0043 µg/mL): 0.747; fitness (S. pneumoniae D39V; first compound 25 µg/mL, partner 0.008 µg/mL): 0.379; fitness (S. pneumoniae D39V; first compound 50 µg/mL, partner 0.001075 µg/mL): 0.926; fitness (S. pneumoniae D39V; first compound 50 µg/mL, partner 0.002 µg/mL): 0.777; fitness (S. pneumoniae D39V; first compound 50 µg/mL, partner 0.004 µg/mL): 0.646; fitness (S. pneumoniae D39V; first compound 50 µg/mL, partner 0.0043 µg/mL): 0.881; fitness (S. pneumoniae D39V; first compound 50 µg/mL, partner 0.008 µg/mL): 0.285

**Q.** Which results are given for `N[C@@H]1CONC1=O` [Cycloserine D] + CCN(CC)CCOC(=O)c1ccc(N)cc1 [Procaine]?
**A.** fitness (B. subtilis 168; first compound 0.125 µg/mL, partner 85.5 µg/mL): 0.95; fitness (B. subtilis 168; first compound 0.125 µg/mL, partner 171 µg/mL): 0.908; fitness (B. subtilis 168; first compound 0.125 µg/mL, partner 342 µg/mL): 0.925; fitness (B. subtilis 168; first compound 0.25 µg/mL, partner 85.5 µg/mL): 0.899; fitness (B. subtilis 168; first compound 0.25 µg/mL, partner 171 µg/mL): 0.851; fitness (B. subtilis 168; first compound 0.25 µg/mL, partner 342 µg/mL): 0.874; fitness (B. subtilis 168; first compound 0.5 µg/mL, partner 85.5 µg/mL): 0.921; fitness (B. subtilis 168; first compound 0.5 µg/mL, partner 171 µg/mL): 0.894; fitness (B. subtilis 168; first compound 0.5 µg/mL, partner 342 µg/mL): 0.907; fitness (S. aureus DSM 20231; [7]): 0.979; fitness (S. aureus DSM 20231; [8]): 0.996; fitness (S. aureus DSM 20231; [9]): ≥ 1; fitness (S. aureus DSM 20231; [10]): 0.982; fitness (S. aureus DSM 20231; [11]): 0.998; fitness (S. aureus DSM 20231; [12]): 0.966; fitness (S. aureus DSM 20231; [13]): 0.981; fitness (S. aureus DSM 20231; [14]): ≥ 1; fitness (S. aureus DSM 20231; [15]): ≥ 1; fitness (S. aureus Newman; [7]): ≥ 1; fitness (S. aureus Newman; [8]): 0.993; fitness (S. aureus Newman; [9]): ≥ 1; fitness (S. aureus Newman; [10]): ≥ 1; fitness (S. aureus Newman; [11]): ≥ 1; fitness (S. aureus Newman; [12]): ≥ 1; fitness (S. aureus Newman; [13]): ≥ 1; fitness (S. aureus Newman; [14]): ≥ 1; fitness (S. aureus Newman; [15]): ≥ 1

**Q.** How did the fitness (B. subtilis 168; first compound 0.125 µg/mL, partner 0.625 µg/mL) turn out when `N[C@@H]1CONC1=O` [Cycloserine D] + Cc1ncc([N+](=O)[O-])n1CCO [Metronidazole] was run?
**A.** 0.948

**Q.** And the fitness (B. subtilis 168; first compound 0.125 µg/mL, partner 1.25 µg/mL)?
**A.** 0.913

**Q.** What about the fitness (B. subtilis 168; first compound 0.125 µg/mL, partner 2.5 µg/mL) of the same compound?
**A.** 0.937

**Q.** What about the fitness (B. subtilis 168; first compound 0.25 µg/mL, partner 1.25 µg/mL) of the same compound?
**A.** 0.841

**Q.** What about the fitness (B. subtilis 168; first compound 0.25 µg/mL, partner 2.5 µg/mL) of the same compound?
**A.** 0.868

**Q.** And the fitness (B. subtilis 168; first compound 0.5 µg/mL, partner 0.625 µg/mL)?
**A.** 0.933

**Q.** What about the fitness (B. subtilis 168; first compound 0.5 µg/mL, partner 1.25 µg/mL) of the same compound?
**A.** 0.921

**Q.** And the fitness (B. subtilis 168; first compound 0.5 µg/mL, partner 2.5 µg/mL)?
**A.** 0.973

**Q.** What about the fitness (S. aureus DSM 20231; [16]) of the same compound?
**A.** ≥ 1

**Q.** And the fitness (S. aureus DSM 20231; [17])?
**A.** ≥ 1

**Q.** And the fitness (S. aureus DSM 20231; [18])?
**A.** ≥ 1

**Q.** What about the fitness (S. aureus DSM 20231; [19]) of the same compound?
**A.** ≥ 1

**Q.** What about the fitness (S. aureus DSM 20231; [20]) of the same compound?
**A.** ≥ 1

**Q.** What about the fitness (S. aureus DSM 20231; [21]) of the same compound?
**A.** ≥ 1

**Q.** And the fitness (S. aureus DSM 20231; [22])?
**A.** ≥ 1

**Q.** And the fitness (S. aureus DSM 20231; [23])?
**A.** ≥ 1

**Q.** What about the fitness (S. aureus DSM 20231; [24]) of the same compound?
**A.** ≥ 1

**Q.** What about the fitness (S. aureus Newman; [16]) of the same compound?
**A.** 0.969

**Q.** What about the fitness (S. aureus Newman; first compound 0.375 µg/mL, partner 0.781 µg/mL) of the same compound?
**A.** 0.959

**Q.** What about the fitness (S. aureus Newman; [17]) of the same compound?
**A.** ≥ 1

**Q.** And the fitness (S. aureus Newman; first compound 0.375 µg/mL, partner 1.562 µg/mL)?
**A.** 0.976

**Q.** What about the fitness (S. aureus Newman; [18]) of the same compound?
**A.** 0.97

**Q.** And the fitness (S. aureus Newman; first compound 0.375 µg/mL, partner 3.124 µg/mL)?
**A.** 0.985

**Q.** And the fitness (S. aureus Newman; [19])?
**A.** 0.929

**Q.** What about the fitness (S. aureus Newman; first compound 0.75 µg/mL, partner 0.781 µg/mL) of the same compound?
**A.** ≥ 1

**Q.** And the fitness (S. aureus Newman; [20])?
**A.** ≥ 1

**Q.** And the fitness (S. aureus Newman; first compound 0.75 µg/mL, partner 1.562 µg/mL)?
**A.** 0.972

**Q.** And the fitness (S. aureus Newman; [21])?
**A.** 0.961

**Q.** What about the fitness (S. aureus Newman; first compound 0.75 µg/mL, partner 3.124 µg/mL) of the same compound?
**A.** 0.988

**Q.** And the fitness (S. aureus Newman; [22])?
**A.** 0.912

**Q.** What about the fitness (S. aureus Newman; first compound 1.5 µg/mL, partner 0.781 µg/mL) of the same compound?
**A.** ≥ 1

**Q.** What about the fitness (S. aureus Newman; [23]) of the same compound?
**A.** 0.964

**Q.** What about the fitness (S. aureus Newman; first compound 1.5 µg/mL, partner 1.562 µg/mL) of the same compound?
**A.** 0.974

**Q.** And the fitness (S. aureus Newman; [24])?
**A.** 0.972

**Q.** And the fitness (S. aureus Newman; first compound 1.5 µg/mL, partner 3.124 µg/mL)?
**A.** ≥ 1

Source: the supplement of paper PMC10627819
